Data published in patent publication US11331369B2, “Endoparasitic depsipeptides” (Zoetis Services LLC, priority 2017, dated 2022).

Tested on: microfilariae of Dirofilaria immitis
Assay: Dirofilaria immitis, Microfilaria (DiMF) In vitro Assay
Assay type: cell-based
Details: 72 h, read-out: DiMF Minimum Effective Dose (MED), approximately 72 hours incubation, microfilariae assessed for survival or paralysis

Row | Structure (SMILES) | minimal effective concentration
1 | CC(C)C#Cc1cnn(Cc2ccc(C[C@H]3OC(=O)[C@H](CC(C)C)N(C)C(=O)[C@@H](C)OC(=O)[C@H](CC(C)C)N(C)C(=O)[C@@H](Cc4ccccc4)OC(=O)[C@H](CC(C)C)N(C)C(=O)[C@@H](C)OC(=O)[C@H](CC(C)C)N(C)C3=O)cc2)c1 [Example 2-70, (3S,6R,9S,12R,15S,18R,21S,24R)-6-benzyl-3,9,15,21-tetraisobutyl-4,10,12,16,22,24-hexamethyl-18-(4-((4-(3-methylbut-1-yn-1-yl)-1H-pyrazol-1-yl)methyl)benzyl)-1,7,13,19-tetraoxa-4,10,16,22-tetraazacyclotetracosan-2,5,8,11,14,17,20,23-octaone] | 0.01 to 0.1 µM
2 | Cc1nn(Cc2ccc(C[C@H]3OC(=O)[C@H](CC(C)C)N(C)C(=O)[C@@H](C)OC(=O)[C@H](CC(C)C)N(C)C(=O)[C@@H](Cc4ccc(Cn5nc(C6CC6)cc5C5CC5)cc4)OC(=O)[C@H](CC(C)C)N(C)C(=O)[C@@H](C)OC(=O)[C@H](CC(C)C)N(C)C3=O)cc2)cc1CO [Example 1a-8, (3S,6R,9S,12R,15S,18R,21S,24R)-6-(4-((3,5-dicyclopropyl-1H-pyrazol-1-yl)methyl)benzyl)-18-(4-((4-(hydroxymethyl)-3-methyl-1H-pyrazol-1-yl)methyl)benzyl)-3,9,15,21-tetraisobutyl-4,10,12,16,22,24-hexamethyl-1,7,13,19-tetraoxa-4,10,16,22-tetraazacyclotetracosan-2,5,8,11,14,17,20,23-octaone] | 0.01 to 0.1 µM
3 | CNC(=O)c1cnn(Cc2ccc(C[C@H]3OC(=O)[C@H](CC(C)C)N(C)C(=O)[C@@H](C)OC(=O)[C@H](CC(C)C)N(C)C(=O)[C@@H](Cc4ccc(Cn5cc(C(=O)NC)cn5)cc4)OC(=O)[C@H](CC(C)C)N(C)C(=O)[C@@H](C)OC(=O)[C@H](CC(C)C)N(C)C3=O)cc2)c1 [Example 1b-53, 1,1′-(((((2R,5S,8R,11 S,14R,17S,20R,23S)-5,11,17,23-tetraisobutyl-4,8,10,16,20,22-hexamethyl-3,6,9,12,15,18,21,24-octaoxo-1,7,13,19-tetraoxa-4,10,16,22-tetraazacyclotetracosane-2,14-diyl)bis(methylene))bis(4,1-phenylene))bis(methylene))bis(N-methyl-1H-pyrazole-4-carboxamide)] | 0.01 to 0.1 µM
4 | Cc1nn(Cc2ccc(C[C@H]3OC(=O)[C@H](CC(C)C)N(C)C(=O)[C@@H](C)OC(=O)[C@H](CC(C)C)N(C)C(=O)[C@@H](Cc4ccccc4)OC(=O)[C@H](CC(C)C)N(C)C(=O)[C@@H](C)OC(=O)[C@H](CC(C)C)N(C)C3=O)cc2)cc1Br [Example 2-16, (3S,6R,9S,12R,15S,18R,21S,24R)-6-benzyl-18-(4-((4-bromo-3-methyl-1H-pyrazol-1-yl)methyl)benzyl)-3,9,15,21-tetraisobutyl-4,10,12,16,22,24-hexamethyl-1,7,13,19-tetraoxa-4,10,16,22-tetraazacyclotetracosan-2,5,8,11,14,17,20,23-octaone] | 0.01 to 0.1 µM
5 | CC(C)C[C@H]1C(=O)O[C@H](Cc2ccc(Cn3cc(S(=O)(=O)N4CCCC4)cn3)cc2)C(=O)N(C)[C@@H](CC(C)C)C(=O)O[C@H](C)C(=O)N(C)[C@@H](CC(C)C)C(=O)O[C@H](Cc2ccccc2)C(=O)N(C)[C@@H](CC(C)C)C(=O)O[C@H](C)C(=O)N1C [Example 2-24, (3S,6R,9S,12R,15S,18R,21S,24R)-6-benzyl-3,9,15,21-tetraisobutyl-4,10,12,16,22,24-hexamethyl-18-(4-((4-(pyrrolidin-1-ylsulfonyl)-1H-pyrazol-1-yl)methyl)benzyl)-1,7,13,19-tetraoxa-4,10,16,22-tetraazacyclotetracosan-2,5,8,11,14,17,20,23-octaone] | 0.01 to 0.1 µM
6 | CC(C)C[C@H]1C(=O)O[C@H](Cc2ccc(Cn3ccnc3CO)cc2)C(=O)N(C)[C@@H](CC(C)C)C(=O)O[C@H](C)C(=O)N(C)[C@@H](CC(C)C)C(=O)O[C@H](Cc2ccc(Cn3ccnc3CO)cc2)C(=O)N(C)[C@@H](CC(C)C)C(=O)O[C@H](C)C(=O)N1C [Example 6-16, (3S,6R,9S,12R,15S,18R,21S,24R)-6,18-bis(4-((2-(hydroxymethyl)-1H-imidazol-1-yl)methyl)benzyl)-3,9,15,21-tetraisobutyl-4,10,12,16,22,24-hexamethyl-1,7,13,19-tetraoxa-4,10,16,22-tetraazacyclotetracosan-2,5,8,11,14,17,20,23-octaone] | 0.001 to 0.01 µM
7 | CC(C)C[C@H]1C(=O)O[C@H](Cc2ccc(Cn3cc4ccccc4n3)cc2)C(=O)N(C)[C@@H](CC(C)C)C(=O)O[C@H](C)C(=O)N(C)[C@@H](CC(C)C)C(=O)O[C@H](Cc2ccc(Cn3cc4ccccc4n3)cc2)C(=O)N(C)[C@@H](CC(C)C)C(=O)O[C@H](C)C(=O)N1C [Example 9-35, (3S,6R,9S,12R,15S,18R,21S,24R)-6,18-bis(4-((2H-indazol-2-yl)methyl)benzyl)-3,9,15,21-tetraisobutyl-4,10,12,16,22,24-hexamethyl-1,7,13,19-tetraoxa-4,10,16,22-tetraazacyclotetracosan-2,5,8,11,14,17,20,23-octaone] | 0.01 to 0.1 µM
8 | CC(C)C[C@H]1C(=O)O[C@H](Cc2ccc(Cn3cc(S(=O)(=O)N4CCCCC4)cn3)cc2)C(=O)N(C)[C@@H](CC(C)C)C(=O)O[C@H](C)C(=O)N(C)[C@@H](CC(C)C)C(=O)O[C@H](Cc2ccccc2)C(=O)N(C)[C@@H](CC(C)C)C(=O)O[C@H](C)C(=O)N1C [Example 2-21, (3S,6R,9S,12R,15S,18R,21S,24R)-6-benzyl-3,9,15,21-tetraisobutyl-4,10,12,16,22,24-hexamethyl-18-(4-((4-(piperidin-1-ylsulfonyl)-1H-pyrazol-1-yl)methyl)benzyl)-1,7,13,19-tetraoxa-4,10,16,22-tetraazacyclotetracosan-2,5,8,11,14,17,20,23-octaone] | 0.01 to 0.1 µM
9 | CC(C)C[C@H]1C(=O)O[C@H](Cc2ccc(Cn3ncc4cccnc43)cc2)C(=O)N(C)[C@@H](CC(C)C)C(=O)O[C@H](C)C(=O)N(C)[C@@H](CC(C)C)C(=O)O[C@H](Cc2ccc(Cn3ncc4cccnc43)cc2)C(=O)N(C)[C@@H](CC(C)C)C(=O)O[C@H](C)C(=O)N1C [Example 9-49, (3S,6R,9S,12R,15S,18R,21S,24R)-6,18-bis(4-((1H-pyrazolo[3,4-b]pyridin-1-yl)methyl)benzyl)-3,9,15,21-tetraisobutyl-4,10,12,16,22,24-hexamethyl-1,7,13,19-tetraoxa-4,10,16,22-tetraazacyclotetracosan-2,5,8,11,14,17,20,23-octaone] | 0.001 to 0.01 µM
10 | CC(C)C[C@H]1C(=O)O[C@H](Cc2cccc(Cn3cc(F)cn3)c2)C(=O)N(C)[C@@H](CC(C)C)C(=O)O[C@H](C)C(=O)N(C)[C@@H](CC(C)C)C(=O)O[C@H](Cc2ccccc2)C(=O)N(C)[C@@H](CC(C)C)C(=O)O[C@H](C)C(=O)N1C [Example 5-1, (3S,6R,9S,12R,15S,18R,21S,24R)-6-benzyl-18-(3-((4-fluoro-1H-pyrazol-1-yl)methyl)benzyl)-3,9,15,21-tetraisobutyl-4,10,12,16,22,24-hexamethyl-1,7,13,19-tetraoxa-4,10,16,22-tetraazacyclotetracosan-2,5,8,11,14,17,20,23-octaone] | 0.001 to 0.01 µM
